Reference: PubChem BioAssay (NCI)
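Interpolation was linear, between the two tested concentrations surrounding the appropriate level; five concentrations were tested over 48 hours in 96-well plates. Here, GI50 denotes the concentration required for 50% inhibition of growth. Definition used: TGI = concentration required for complete inhibition of growth.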

Assays:
Assay in all cases: inhibition of tumour cell growth, NCI panel, 48 h
[1] = system: SF-539 CNS
[2] = system: MDA-MB-435
[3] = system: 786-0 renal
[4] = system: U251 CNS
[5] = system: OVCAR-3 ovarian
[6] = system: CAKI-1 renal
[7] = system: OVCAR-8 ovarian
[8] = system: KM12 colon
[9] = system: LOX IMVI melanoma
[10] = system: BT-549 breast
[11] = system: HOP-92 NSCLC
[12] = system: SR leukemia
[13] = system: HCT-116 colon
[14] = system: UACC-62 melanoma
[15] = system: HOP-62 NSCLC
[16] = system: HL-60(TB) leukemia
[17] = system: MDA-MB-231 breast
[18] = system: UO-31 renal
[19] = system: CCRF-CEM leukemia
[20] = system: SN12C renal
[21] = system: MCF7 breast
[22] = system: SF-268 CNS
[23] = system: NCI/ADR-RES ovarian
[24] = system: NCI-H226 lung
[25] = system: A549 NSCLC
[26] = system: SK-MEL-5 melanoma
[27] = system: UACC-257 melanoma
[28] = system: RPMI-8226 leukemia
[29] = system: OVCAR-4 ovarian
[30] = system: HS 578T breast
[31] = system: K-562 leukemia
[32] = system: HT29 colon
[33] = system: COLO 205 colon
[34] = system: SK-MEL-28 melanoma
[35] = system: DU-145 prostate
[36] = system: A498 renal
[37] = system: TK-10 renal
[38] = system: IGROV1 ovarian
[39] = system: SK-MEL-2 melanoma
[40] = system: MALME-3M melanoma
[41] = system: NCI-H522 lung
[42] = system: PC-3 prostate
[43] = system: SNB-75 CNS
[44] = system: NCI-H460 lung
[45] = system: EKVX NSCLC
[46] = system: MOLT-4 leukemia
[47] = system: SNB-19 CNS
[48] = system: RXF 393 renal
[49] = system: HCC-2998 colon
[50] = system: SF-295 CNS
[51] = system: T-47D breast
[52] = system: HCT-15 colon
[53] = system: SW-620 colon
[54] = system: ACHN renal
[55] = system: M14 melanoma
[56] = system: OVCAR-5 ovarian
[57] = system: SK-OV-3 ovarian
[58] = system: NCI-H23 lung

O=C(CNc1c(Cl)cccc1Cl)Nc1ccc(-c2nc3ccccc3s2)cc1
GI50 [1]: 1.88 µM
TGI [1]: 3.62 µM
GI50 [2]: 2.64 µM
TGI [2]: 10.9 µM
GI50 [3]: 1.78 µM
TGI [3]: 3.76 µM
GI50 [4]: 2.06 µM
TGI [4]: 4.65 µM
GI50 [5]: 1.97 µM
TGI [5]: 3.73 µM
GI50 [6]: 2.26 µM
TGI [6]: 5.79 µM
GI50 [7]: 3.01 µM
TGI [7]: > 29.8 µM
GI50 [8]: 2.62 µM
TGI [8]: 6.94 µM
GI50 [9]: 1.39 µM
TGI [9]: 2.88 µM
GI50 [10]: 1.72 µM
TGI [10]: 4.64 µM
GI50 [11]: 1.66 µM
TGI [11]: 4.45 µM
GI50 [12]: 0.797 µM
TGI [12]: > 23.1 µM
GI50 [13]: 1.98 µM
TGI [13]: 4.93 µM
GI50 [14]: 1.71 µM
TGI [14]: 3.87 µM
GI50 [15]: 6.8 µM
TGI [15]: 21.3 µM
GI50 [16]: 2.37 µM
TGI [16]: 7.5 µM
GI50 [17]: 2.67 µM
TGI [17]: 7.31 µM
GI50 [18]: 3.62 µM
TGI [18]: 9.13 µM
GI50 [19]: 0.485 µM
GI50 [20]: 2.31 µM
TGI [20]: 7.1 µM
GI50 [21]: 0.0913 µM
TGI [21]: 5.7 µM
GI50 [22]: 2.4 µM
TGI [22]: 6.44 µM
GI50 [23]: 3.22 µM
TGI [23]: 9.89 µM
GI50 [24]: 2.17 µM
TGI [24]: 5.72 µM
GI50 [25]: 5.83 µM
TGI [25]: 26.6 µM
GI50 [26]: 1.61 µM
TGI [26]: 3.3 µM
GI50 [27]: 4.27 µM
TGI [27]: 16.6 µM
GI50 [28]: 2.44 µM
TGI [28]: > 22.8 µM
GI50 [29]: 1.95 µM
TGI [29]: 5.19 µM
GI50 [30]: 5.11 µM
TGI [30]: 67.8 µM
GI50 [31]: 1.24 µM
TGI [31]: > 33.9 µM
GI50 [32]: 2.16 µM
TGI [32]: 4.76 µM
GI50 [33]: 2.33 µM
TGI [33]: 4.81 µM
GI50 [34]: 2.61 µM
TGI [34]: 7.31 µM
GI50 [35]: 3.41 µM
TGI [35]: 10.7 µM
GI50 [36]: 8.93 µM
TGI [36]: 23.4 µM
GI50 [37]: 2.04 µM
TGI [37]: 4.69 µM
GI50 [38]: 2.3 µM
TGI [38]: 5.85 µM
GI50 [39]: 3.32 µM
TGI [39]: 12.4 µM
GI50 [40]: 1.85 µM
TGI [40]: 3.75 µM
GI50 [41]: 1.56 µM
TGI [41]: 3.61 µM
GI50 [42]: 1.66 µM
TGI [42]: 3.52 µM
GI50 [43]: 2.42 µM
TGI [43]: 8.22 µM
GI50 [44]: 2.69 µM
TGI [44]: 7.96 µM
GI50 [45]: 11.2 µM
TGI [45]: 28.2 µM
GI50 [46]: 0.666 µM
TGI [46]: > 27.3 µM
GI50 [47]: 3.14 µM
TGI [47]: 12.5 µM
GI50 [48]: 4.15 µM
TGI [48]: 9.73 µM
GI50 [49]: 2.11 µM
TGI [49]: 4.29 µM
GI50 [50]: 15.6 µM
TGI [50]: 30.2 µM
GI50 [51]: 1.89 µM
TGI [51]: 5.37 µM
GI50 [52]: 1.78 µM
TGI [52]: 5.28 µM
GI50 [53]: 2.2 µM
TGI [53]: 4.9 µM
GI50 [54]: 1.97 µM
TGI [54]: 3.93 µM
GI50 [55]: 2.05 µM
TGI [55]: 5.52 µM
GI50 [56]: 2.53 µM
TGI [56]: 7.79 µM
GI50 [57]: 9.11 µM
TGI [57]: 70.6 µM
GI50 [58]: 2.06 µM
TGI [58]: 4.58 µM
